Experimental data reported in article PMC11079024, “Identification of a family of species-selective complex I inhibitors as potential anthelmintics” (Nature Communications, 2024).
“And” between values parts separate entries of the source, which are not always exact repeats. Equal entries are not always repeated. Where two headings read alike, the source gives them in different places.

What was measured:
[1] = target: B. taurus (heart) complex I (Bos taurus, UniProt P03887+P17694+P42026); assay: biochemical; assay type: biochemical
Procedure, shortened: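 Complex I activity followed as DCIP reduction (600 nm, 30 s reads, 15 min) with 80 μM NADH and 60 μM decylubiquinone in 25 mM KPi pH 7.5 containing 2 μM antimycin A and 2 mM KCN. Freeze-thawed mouse or bovine heart mitochondria at 0.2 mg/mL; initial-rate percent of solvent control, single-point 100 μM or dose-response.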

[2] = target: C. elegans (N2) complex I (NADH:ubiquinone oxidoreductase) (Caenorhabditis elegans, UniProt P24887+Q93873+Q94360); assay: biochemical; assay type: biochemical; details: wild-type C. elegans mitochondria, read-out: percent (%) in vitro complex I activity relative to solvent control
Procedure, shortened: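 Mitochondria, 0.2 mg/mL protein, freeze-thawed three times, assayed in 25 mM KPi pH 7.5 with BSA, 80 μM NADH, 60 μM decylubiquinone, 160 μM DCIP, antimycin A and KCN. Rate from initial linear slope of A600 over 15 min. % of solvent control.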

Sequence of C. elegans (N2) complex I (NADH:ubiquinone oxidoreductase) (Q94360 17-199): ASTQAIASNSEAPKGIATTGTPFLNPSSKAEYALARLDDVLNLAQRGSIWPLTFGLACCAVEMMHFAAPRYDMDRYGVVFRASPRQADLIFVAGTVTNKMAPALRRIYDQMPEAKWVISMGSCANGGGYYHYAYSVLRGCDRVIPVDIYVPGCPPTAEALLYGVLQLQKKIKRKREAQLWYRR
Sequence of C. elegans (N2) complex I (NADH:ubiquinone oxidoreductase) (P24887 whole entry): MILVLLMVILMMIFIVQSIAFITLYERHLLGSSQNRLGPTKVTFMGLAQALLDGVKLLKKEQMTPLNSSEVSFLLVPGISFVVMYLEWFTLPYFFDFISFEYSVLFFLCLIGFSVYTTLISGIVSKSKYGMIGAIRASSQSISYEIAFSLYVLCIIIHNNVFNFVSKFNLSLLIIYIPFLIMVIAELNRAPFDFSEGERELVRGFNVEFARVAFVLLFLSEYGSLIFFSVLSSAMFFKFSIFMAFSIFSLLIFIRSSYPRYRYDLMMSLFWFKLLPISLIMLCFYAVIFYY
Sequence of C. elegans (N2) complex I (NADH:ubiquinone oxidoreductase) (Q93873 31-482): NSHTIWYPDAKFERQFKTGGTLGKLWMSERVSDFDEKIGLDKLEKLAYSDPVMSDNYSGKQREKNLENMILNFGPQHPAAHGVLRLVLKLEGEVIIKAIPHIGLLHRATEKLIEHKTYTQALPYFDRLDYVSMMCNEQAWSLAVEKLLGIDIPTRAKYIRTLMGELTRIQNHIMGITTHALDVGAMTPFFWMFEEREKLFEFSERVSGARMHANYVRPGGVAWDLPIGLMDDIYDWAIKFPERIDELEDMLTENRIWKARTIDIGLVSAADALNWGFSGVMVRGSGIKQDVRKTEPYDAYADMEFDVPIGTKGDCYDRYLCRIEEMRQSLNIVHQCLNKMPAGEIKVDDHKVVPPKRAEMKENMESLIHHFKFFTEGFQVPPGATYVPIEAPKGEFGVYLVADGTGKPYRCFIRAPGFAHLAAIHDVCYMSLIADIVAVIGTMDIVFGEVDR
Sequence of B. taurus (heart) complex I (P03887 whole entry): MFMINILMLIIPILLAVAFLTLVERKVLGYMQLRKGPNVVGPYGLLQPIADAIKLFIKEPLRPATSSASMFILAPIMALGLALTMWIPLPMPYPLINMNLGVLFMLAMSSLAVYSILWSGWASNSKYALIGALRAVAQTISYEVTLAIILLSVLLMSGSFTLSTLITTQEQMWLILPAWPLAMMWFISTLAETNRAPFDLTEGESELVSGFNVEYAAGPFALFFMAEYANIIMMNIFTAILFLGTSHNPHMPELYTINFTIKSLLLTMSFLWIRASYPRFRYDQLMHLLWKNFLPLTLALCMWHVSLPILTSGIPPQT
Sequence of B. taurus (heart) complex I (P17694 34-463): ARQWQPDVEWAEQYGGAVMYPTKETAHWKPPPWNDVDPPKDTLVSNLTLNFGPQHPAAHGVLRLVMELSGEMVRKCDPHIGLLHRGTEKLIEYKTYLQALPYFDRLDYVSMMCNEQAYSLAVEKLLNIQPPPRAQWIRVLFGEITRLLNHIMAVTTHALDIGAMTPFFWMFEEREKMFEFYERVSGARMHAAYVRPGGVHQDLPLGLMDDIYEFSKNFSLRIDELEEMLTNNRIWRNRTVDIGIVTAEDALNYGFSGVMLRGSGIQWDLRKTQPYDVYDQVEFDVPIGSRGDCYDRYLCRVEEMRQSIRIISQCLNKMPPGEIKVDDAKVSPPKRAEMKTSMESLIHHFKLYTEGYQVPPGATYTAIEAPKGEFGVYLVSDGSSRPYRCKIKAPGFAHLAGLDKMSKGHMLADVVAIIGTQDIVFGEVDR
Sequence of B. taurus (heart) complex I (P42026 38-216): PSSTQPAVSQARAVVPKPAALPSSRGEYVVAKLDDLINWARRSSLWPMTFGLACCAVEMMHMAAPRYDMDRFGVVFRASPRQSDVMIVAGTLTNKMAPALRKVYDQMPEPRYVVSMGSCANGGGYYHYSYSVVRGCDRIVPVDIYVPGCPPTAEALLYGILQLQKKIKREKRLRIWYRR

Compound: COc1cc2c(cc1OC)C(C(C)c1ccc(CC(C)C)cc1)=NCC2 (centres unmarked) [NPD10504]
- activity at 0.0001 µM ([1]; B. taurus, dose 0.0001 µM, Mean of replicates, read-out: Complex I activity, dose-response data): 107%
- Complex I activity, dose-response data ([1]; B. taurus, dose 0.0001 µM, individual replicates (Rep)): 117.793 and 105.069 and 91.702 and 112.227
- activity at 0.0005 µM ([1]; B. taurus, dose 0.0005 µM, Mean of replicates, read-out: Complex I activity, dose-response data): 106%
- Complex I activity, dose-response data ([1]; B. taurus, dose 0.0005 µM, individual replicates (Rep)): 109.504 and 97.187 and 111.197
- activity at 0.0005 µM ([1]; B. taurus, dose 0.0005 µM, individual replicates (Rep), read-out: Complex I activity, dose-response data): 106%
- activity at 0.001 µM ([1]; B. taurus, dose 0.001 µM, Mean of replicates, read-out: Complex I activity, dose-response data): 99.9%
- Complex I activity, dose-response data ([1]; B. taurus, dose 0.001 µM, individual replicates (Rep)): 98.069 and 105.385 and 87.764 and 108.494
- activity at 0.0025 µM ([1]; B. taurus, dose 0.0025 µM, Mean of replicates, read-out: Complex I activity, dose-response data): 103%
- Complex I activity, dose-response data ([1]; B. taurus, dose 0.0025 µM, individual replicates (Rep)): 100.000 and 97.046 and 110.425
- activity at 0.0025 µM ([1]; B. taurus, dose 0.0025 µM, individual replicates (Rep), read-out: Complex I activity, dose-response data): 106%
- activity at 0.005 µM ([1]; B. taurus, dose 0.005 µM, Mean of replicates, read-out: Complex I activity, dose-response data): 95.2%
- Complex I activity, dose-response data ([1]; B. taurus, dose 0.005 µM, individual replicates (Rep)): 92.608 and 94.796 and 95.624
- activity at 0.005 µM ([1]; B. taurus, dose 0.005 µM, individual replicates (Rep), read-out: Complex I activity, dose-response data): 97.7%
- activity at 0.013 µM ([1]; B. taurus, dose 0.013 µM, Mean of replicates, read-out: Complex I activity, dose-response data): 101%
- Complex I activity, dose-response data ([1]; B. taurus, dose 0.013 µM, individual replicates (Rep)): 117.931 and 88.068 and 92.546 and 105.663
- activity at 0.025 µM ([1]; B. taurus, dose 0.025 µM, Mean of replicates, read-out: Complex I activity, dose-response data): 101%
- Complex I activity, dose-response data ([1]; B. taurus, dose 0.025 µM, individual replicates (Rep)): 94.298 and 94.233 and 109.524
- activity at 0.025 µM ([1]; B. taurus, dose 0.025 µM, individual replicates (Rep), read-out: Complex I activity, dose-response data): 107%
- activity at 0.063 µM ([1]; B. taurus, dose 0.063 µM, Mean of replicates, read-out: Complex I activity, dose-response data): 90.7%
- Complex I activity, dose-response data ([1]; B. taurus, dose 0.063 µM, individual replicates (Rep)): 92.397 and 91.561 and 90.734
- activity at 0.063 µM ([1]; B. taurus, dose 0.063 µM, individual replicates (Rep), read-out: Complex I activity, dose-response data): 88%
- activity at 0.125 µM ([1]; B. taurus, dose 0.125 µM, Mean of replicates, read-out: Complex I activity, dose-response data): 83.6%
- Complex I activity, dose-response data ([1]; B. taurus, dose 0.125 µM, individual replicates (Rep)): 80.676 and 85.091 and 80.824
- activity at 0.125 µM ([1]; B. taurus, dose 0.125 µM, individual replicates (Rep), read-out: Complex I activity, dose-response data): 87.9%
- activity at 0.313 µM ([1]; B. taurus, dose 0.313 µM, Mean of replicates, read-out: Complex I activity, dose-response data): 98%
- Complex I activity, dose-response data ([1]; B. taurus, dose 0.313 µM, individual replicates (Rep)): 97.994 and 101.828 and 86.358
- activity at 0.313 µM ([1]; B. taurus, dose 0.313 µM, individual replicates (Rep), read-out: Complex I activity, dose-response data): 106%
- activity at 0.625 µM ([1]; B. taurus, dose 0.625 µM, Mean of replicates, read-out: Complex I activity, dose-response data): 101%
- Complex I activity, dose-response data ([1]; B. taurus, dose 0.625 µM, individual replicates (Rep)): 121.834 and 83.881 and 99.417 and 98.267
- activity at 1.5 µM ([1]; B. taurus, dose 1.5 µM, Mean of replicates, read-out: Complex I activity, dose-response data): 96.4%
- Complex I activity, dose-response data ([1]; B. taurus, dose 1.5 µM, individual replicates (Rep)): 115.721 and 89.117 and 89.942 and 90.667
- activity at 3 µM ([1]; B. taurus, dose 3 µM, Mean of replicates, read-out: Complex I activity, dose-response data): 85.9%
- Complex I activity, dose-response data ([1]; B. taurus, dose 3 µM, individual replicates (Rep)): 100.146 and 69.610 and 88.192 and 85.467
- activity at 15 µM ([1]; B. taurus, dose 15 µM, Mean of replicates, read-out: Complex I activity, dose-response data): 36.5%
- Complex I activity, dose-response data ([1]; B. taurus, dose 15 µM, individual replicates (Rep)): 38.809 and 32.507 and 35.200
- activity at 15 µM ([1]; B. taurus, dose 15 µM, individual replicates (Rep), read-out: Complex I activity, dose-response data): 39.3%
- activity at 37.5 µM ([1]; B. taurus, dose 37.5 µM, Mean of replicates, read-out: Complex I activity, dose-response data): 5.69%
- Complex I activity, dose-response data ([1]; B. taurus, dose 37.5 µM, individual replicates (Rep)): 3.348 and 10.986 and 0.292 and 8.133
- activity at 75 µM ([1]; B. taurus, dose 75 µM, Mean of replicates, read-out: Complex I activity, dose-response data): 3.63%
- Complex I activity, dose-response data ([1]; B. taurus, dose 75 µM, individual replicates (Rep)): 0.000 and 11.602 and 2.933
- IC50 ([1]; heart mitochondria, read-out: B. taurus Complex I IC50): 11.3 µM
- remaining activity at 0.125 µM ([2]; mean of replicates): 92.7%
- remaining activity at 0.125 µM ([2]; single replicate): 88.8%
- remaining activity at 0.313 µM ([2]; mean of replicates): 91.5%
- remaining activity at 0.313 µM ([2]; single replicate): 88.6%
- remaining activity at 0.625 µM ([2]; mean of replicates): 100%
- remaining activity at 0.625 µM ([2]; single replicate): 100%
- remaining activity at 1.5 µM ([2]; mean of replicates): 78.6%
- remaining activity at 1.5 µM ([2]; single replicate): 76.6%
- remaining activity at 3 µM ([2]; 3 µM, mean of replicates): 58.9%
